Tested on: amnesia induced by scopolamine in rats
Experiment: passive avoidance test, amnesia induced by scopolamine in rats
Type: in vivo
Experimental: The purpose of the study is to examine the effects of etifoxine on amnesia, induced by a substance which is an antagonist of the cholinergic receptors in rats, scopolamine (see in particular Rush (1988) Behav. Neural. Biol. 1988 50:255-274).
Memory capacities are evaluated over the course of the passive avoidance test in a box with two compartments, dark and light. In a first step, the acquisition step, entering the dark compartment is associated with an unpleasant electric shock. In a second step, the retention step, the latency to enter the dark compartment is measured. The lower this latency, the more strongly the animal is suffering from amnesia.
Amnesia is induced by administering scopolamine 30 minutes before the information acquisition step.
Two series of tests were performed: • 1) Etifoxine was administered intraperitoneally 35 minutes before acquisition of the event. • 7 groups of 10 to 20 rats were formed, each group receiving the following respective treatments: • Group 1 (reference): scopolamine 0 mg/kg, etifoxine 0 mg/kg • Group 2 (control): scopolamine 0 mg/kg, etifoxine 50 mg/kg • Group 3: scopolamine 1.4 mg/kg, etifoxine 0 mg/kg • Group 4: scopolamine 1.4 mg/kg, etifoxine 6.2 mg/kg • Group 5: scopolamine 1.4 mg/kg, etifoxine 12.5 mg/kg • Group 6: scopolamine 1.4 mg/kg, etifoxine 25 mg/kg • Group 7: scopolamine 1.4 mg/kg, etifoxine 50 mg/kg • 2) Etifoxine was administered intraperitoneally immediately after acquisition of the event. • 7 groups of 10 rats were formed, each group receiving the following respective treatments: • Group 1 (reference): scopolamine 0 mg/kg, etifoxine 0 mg/kg • Group 2 (control): scopolamine 0 mg/kg, etifoxine 50 mg/kg • Group 3: scopolamine 1.4 mg/kg, etifoxine 0 mg/kg • Group 4: scopolamine 1.4 mg/kg, etifoxine 6.2 mg/kg • Group 5: scopolamine 1.4 mg/kg, etifoxine 12.5 mg/kg • Group 6: scopolamine 1.4 mg/kg, etifoxine 25 mg/kg • Group 7: scopolamine 1.4 mg/kg, etifoxine 50 mg/kg
For each test series and for each group the latency to enter the dark compartment was measured in the case of acquisition and in the case of retention.
For the first series of tests, a one-way ANOVA analysis was performed followed by the Student-Newman-Keuls test in order to find the differences between the groups. The difference is considered significant if the critical value P obtained was less than 0.05.
For the second series of tests, the non-parametric Kruskal-Wallis test was performed followed by the Dunn test in order to find the differences between the groups. The difference is considered significant if the critical value P obtained was less than 0.05.

CN1[C@@H]2C[C@@H](OC(=O)[C@H](CO)c3ccccc3)C[C@H]1[C@@H]1O[C@@H]12 [Scopolamine]
time period to enter the dark compartment vs. reference groups (rats, scopolamine 1.4 mg/kg 30 minutes before acquisition, etifoxine 0, FIGS. 1, 2): significantly shorter

CCNC1=Nc2ccc(Cl)cc2C(C)(c2ccccc2)O1.Cl (stereo not shown) [etifoxine, 6-chloro-2-ethylamino-4-methyl-4-phenyl-4H-[3,1]benzoxazine hydrochloride]
anti-amnesic action (animals, model where memory disorder is induced by scopolamine (summary statement)): exhibits anti-amnesic action | effect on the amnesic effects of scopolamine (latency to enter the dark compartment, retention) (rats, etifoxine 6.2-50 mg/kg intraperitoneally 35 minutes before acquisition, scopolamine 1.4 mg/kg 30 minutes before acquisition, FIG. 1): counteracts the amnesic effects of scopolamine according to an inverted U-shaped curve | effect on the amnesic effects of scopolamine (latency to enter the dark compartment, retention) (rats, etifoxine 6.2-50 mg/kg intraperitoneally immediately after acquisition, scopolamine 1.4 mg/kg 30 minutes before acquisition, FIG. 2): counteracts the amnesic effects of scopolamine according to an inverted U-shaped curve

Reference: patent US20090298817A1, “ANTI-AMNESIC COMPOUNDS AND PHARMACEUTICAL CO[…]” (priority 2008, published 2009)
